The source of these data is ChEMBL document CHEMBL3045757, “Common binding requirements of PPAR-// pan agonists: quantitative structureactivity relationship analysis of indanylacetic acid derivatives carrying 4-thiazolyl-phenoxy tail group” (Med Chem Res, 2012).

For the assay, the target named is T1, Peroxisome proliferator-activated receptor gamma (Homo sapiens, UniProt P37231).
T1 sequence (P37231 whole entry): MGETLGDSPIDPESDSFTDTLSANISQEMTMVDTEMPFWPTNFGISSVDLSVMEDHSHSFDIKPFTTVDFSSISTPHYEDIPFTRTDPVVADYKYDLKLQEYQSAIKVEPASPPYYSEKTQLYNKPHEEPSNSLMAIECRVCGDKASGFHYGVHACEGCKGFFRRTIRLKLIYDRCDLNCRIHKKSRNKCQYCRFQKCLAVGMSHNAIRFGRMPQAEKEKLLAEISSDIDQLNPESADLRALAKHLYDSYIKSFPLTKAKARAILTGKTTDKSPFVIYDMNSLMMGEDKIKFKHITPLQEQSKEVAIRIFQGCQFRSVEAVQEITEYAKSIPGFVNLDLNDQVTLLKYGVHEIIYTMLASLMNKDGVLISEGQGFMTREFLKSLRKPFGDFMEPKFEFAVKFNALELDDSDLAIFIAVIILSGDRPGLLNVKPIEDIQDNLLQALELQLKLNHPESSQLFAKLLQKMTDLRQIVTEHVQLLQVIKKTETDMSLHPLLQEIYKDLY
Briefly: Agonist activity at Homo sapiens (human) PPARgamma expressed in mouse 3T3-L1 cells incubated for 2 days followed by compound wash out measured after 4 days by insulin receptor binding assay. It counts as cell-based.

Regarding `CCOc1nc(-c2ccc(OCCCOc3ccc4c(c3)CC[C@H]4CC(=O)O)c(OC)c2)sc1CC`, the EC50 was 178 nM.
